Assay results reported in patent US20250313533A1, “QUINOLINE CARBOXYLIC ACID ESTER COMPOUND AND PREPARATION METHOD AND USE THEREOF” (priority 2019, published 2025).

Columns and labels:
black shank in potatoes = assay: Living crops in vivo protective activity, potatoes (root irrigation); conditions: Solanum tuberosum, read-out: efficacy against black shank in potatoes; for pest or weed control at 5 ppm: dosage 5 ppm; for pest or weed control at 10 ppm: dosage 10 ppm
Method: Root irrigation was carried out on the potatoes for tests according to the designed concentration of the agents. The dosage for each plant was 200 mL and was kept consistent (also for the control). The black shank bacteria were inoculated on the second day after the application. The results were investigated according to the disease condition.

[1] = system: pathogenic bacteria causing bacterial wilt in cassava; assay: organism not typed; format: cell-based; conditions: read-out: inhibitory rate
[2] = system: pathogenic bacteria causing bacterial wilt in tobacco; assay: whole plant or invertebrate; format: cell-based, ralstonia; conditions: read-out: inhibitory rate
[3] = system: bacterial wilt in tobacco; assay: whole plant or invertebrate; conditions: Nicotiana tabacum, read-out: efficacy against bacterial wilt in tobacco
[4] = system: pathogenic bacteria causing fire blight in pears; assay: In vitro bactericidal activity, fire blight in pears; format: cell-based, erwinia; conditions: Erwinia, read-out: inhibitory rate; for inhibition at 1 ppm: dosage 1 ppm; for inhibition at 5 ppm: dosage 5 ppm
[5] = system: pathogenic bacteria causing black rot in Chinese cabbages; assay: In vitro bactericidal activity, black rot in Chinese cabbages; format: cell-based, xanthomonas; conditions: Xanthomonas, read-out: inhibitory rate; for inhibition at 1 ppm: dosage 1 ppm; for inhibition at 5 ppm: dosage 5 ppm
[6] = system: pathogenic bacteria causing black shank in potatoes; assay: In vitro bactericidal activity, black shank in potatoes; format: cell-based; conditions: read-out: inhibitory rate; for inhibition at 1 ppm: dosage 1 ppm; for inhibition at 5 ppm: dosage 5 ppm
[7] = system: soft rot in Chinese cabbages; assay: whole plant or invertebrate; conditions: 48 h, read-out: efficacy against soft rot in Chinese cabbages
bacterial blight in rice = assay: whole plant or invertebrate; conditions: Oryza sativa, read-out: efficacy against bacterial blight in rice
[8] = system: pathogenic bacteria causing stem rot in sweet potatoes; assay: In vitro bactericidal activity, stem rot in sweet potatoes; format: cell-based, dikia; conditions: read-out: inhibitory rate; for inhibition at 1 ppm: dosage 1 ppm; for inhibition at 5 ppm: dosage 5 ppm
[9] = system: pathogenic bacteria causing bacterial angular leaf spot in cucumbers; assay: In vitro bactericidal activity, bacterial angular leaf spot in cucumbers; format: cell-based, pseudomonas; conditions: read-out: inhibitory rate; for inhibition at 1 ppm: dosage 1 ppm; for inhibition at 5 ppm: dosage 5 ppm
[10] = system: indoor potted cucumber seedlings; assay: Effect of improving growth and development of crops; format: in vivo; set-up: Rate of growth rate increase (%): concentration or dose not given beside the values; conditions: versus blank control; for Rate of chlorophyll content increase (%) / Rate of leaf area increase (%): 14 days after application; for Rate of growth rate increase (%): plant height 14 days after application; for Rate of leaf area increase (%): second leaf
Method: Taking indoor potted cucumber seedlings as an example, the influence of the compound disclosed herein on growth rate of plant height, chlorophyll content, leaf area, etc. of crops was mainly evaluated.
The plant heights of plants before application and 14 days after the application were measured.
The growth rates were calculated according to formula (1)
The rates of the growth rate increase (%) were calculated according to formula (2)
The longitudinal and transverse diameters (i.e., leaf length and leaf width, respectively, wherein the leaf length is the distance from the base to the tip of a leaf, and leaf width is the measured value of the upper shoulder width of the leaf) of the second leaf of plants before application and 14 days after the application were measured.
The leaf areas were calculated according to formula (3)
The leaf area increases were calculated according to formula (4)
The rates of the leaf area increases were calculated according to formula (5)
The chlorophyll contents of leaves were measured by using a chlorophyll measuring instrument (model: SPAD-520 Plus).
The chlorophyll content increases were calculated according to formula (6)
The rates of the chlorophyll content increases were calculated according to formula (7)

cucumber seedlings = assay: Safety for plant growth after application; format: in vivo; conditions: dosage 200 ppm
Summary of the method: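 Compound applied to indoor cucumber seedlings in pots. Growth then scored: height increase rate, leaf chlorophyll, leaf area.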

[11] = system: stem rot in sweet potatoes; assay: whole plant or invertebrate; conditions: read-out: efficacy against stem rot in sweet potatoes
[12] = system: pathogenic bacteria causing fruit blotch in watermelons; assay: In vitro bactericidal activity, fruit blotch in watermelons; format: cell-based, acidovorax; conditions: read-out: inhibitory rate; for inhibition at 1 ppm: dosage 1 ppm; for inhibition at 5 ppm: dosage 5 ppm
[13] = system: pathogenic bacteria causing bacterial blight in rice; assay: whole plant or invertebrate; format: cell-based, xanthomonas; conditions: read-out: inhibitory rate
[14] = system: fruit blotch in watermelons; assay: whole plant or invertebrate; conditions: read-out: efficacy against fruit blotch in watermelons

SMILES	pest or weed control at 5 ppm (black shank in potatoes)	pest or weed control at 10 ppm (black shank in potatoes)	inhibition at 1 ppm [1]	inhibition at 5 ppm [1]	inhibition at 1 ppm [2]	inhibition at 5 ppm [2]	pest or weed control at 5 ppm [3]	pest or weed control at 10 ppm [3]	inhibition at 1 ppm [4]	inhibition at 5 ppm [4]	inhibition at 1 ppm [5]	inhibition at 5 ppm [5]	inhibition at 1 ppm [6]	inhibition at 5 ppm [6]	pest or weed control at 5 ppm [7]	pest or weed control at 10 ppm [7]	pest or weed control at 5 ppm (bacterial blight in rice)	pest or weed control at 10 ppm (bacterial blight in rice)	inhibition at 1 ppm [8]	inhibition at 5 ppm [8]	further results
COCCOC(=O)c1cn(C2CC2)c2cc(F)ccc2c1=O [Compound 195]	≥ 90%	≥ 90%	≥ 90%	≥ 90%	≥ 90%	≥ 90%	≥ 90%	≥ 90%	≥ 90%	≥ 90%	≥ 90%	≥ 90%	≥ 90%	≥ 90%	≥ 90%	≥ 90%	≥ 90%	≥ 90%	≥ 90%	≥ 90%	inhibition at 1 ppm [9]: ≥ 90%; inhibition at 5 ppm [9]: ≥ 90%; Rate of chlorophyll content increase (%) [10]: 12%; Rate of growth rate increase (%) [10]: 7%; Rate of leaf area increase (%) [10]: 9%; safety for plant growth (discoloration, necrosis, wilt, malformation) (cucumber seedlings): safe for plant growth; pest or weed control at 5 ppm [11]: ≥ 90%; pest or weed control at 10 ppm [11]: ≥ 90%; inhibition at 1 ppm [12]: ≥ 90%; inhibition at 5 ppm [12]: ≥ 90%; inhibition at 1 ppm [13]: ≥ 90%; inhibition at 5 ppm [13]: ≥ 90%; pest or weed control at 5 ppm [14]: ≥ 90%; pest or weed control at 10 ppm [14]: ≥ 90%
O=C(OCCCO)c1cn(C2CC2)c2cc(F)ccc2c1=O [Compound 207]	≥ 90%	≥ 90%	≥ 90%	≥ 90%	≥ 90%	≥ 90%	≥ 90%	≥ 90%	≥ 90%	≥ 90%	≥ 90%	≥ 90%	≥ 90%	≥ 90%	≥ 90%	≥ 90%	≥ 90%	≥ 90%	≥ 90%	≥ 90%	inhibition at 1 ppm [9]: ≥ 90%; inhibition at 5 ppm [9]: ≥ 90%; Rate of chlorophyll content increase (%) [10]: 13%; Rate of growth rate increase (%) [10]: 6%; Rate of leaf area increase (%) [10]: 10%; safety for plant growth (discoloration, necrosis, wilt, malformation) (cucumber seedlings): safe for plant growth; pest or weed control at 5 ppm [11]: ≥ 90%; pest or weed control at 10 ppm [11]: ≥ 90%; inhibition at 1 ppm [12]: ≥ 90%; inhibition at 5 ppm [12]: ≥ 90%; inhibition at 1 ppm [13]: ≥ 90%; inhibition at 5 ppm [13]: ≥ 90%; pest or weed control at 5 ppm [14]: ≥ 90%; pest or weed control at 10 ppm [14]: ≥ 90%
COCCCOC(=O)c1cn(C2CC2)c2cc(F)ccc2c1=O [Compound 208]	≥ 90%	≥ 90%	≥ 90%	≥ 90%	≥ 90%	≥ 90%	≥ 90%	≥ 90%	≥ 90%	≥ 90%	≥ 90%	≥ 90%	≥ 90%	≥ 90%	≥ 90%	≥ 90%	≥ 90%	≥ 90%	≥ 90%	≥ 90%	inhibition at 1 ppm [9]: ≥ 90%; inhibition at 5 ppm [9]: ≥ 90%; Rate of chlorophyll content increase (%) [10]: 12%; Rate of growth rate increase (%) [10]: 5%; Rate of leaf area increase (%) [10]: 11%; safety for plant growth (discoloration, necrosis, wilt, malformation) (cucumber seedlings): safe for plant growth; pest or weed control at 5 ppm [11]: ≥ 90%; pest or weed control at 10 ppm [11]: ≥ 90%; inhibition at 1 ppm [12]: ≥ 90%; inhibition at 5 ppm [12]: ≥ 90%; inhibition at 1 ppm [13]: ≥ 90%; inhibition at 5 ppm [13]: ≥ 90%; pest or weed control at 5 ppm [14]: ≥ 90%; pest or weed control at 10 ppm [14]: ≥ 90%
COc1cc2c(cc1F)c(=O)c(C(=O)OCCO)cn2C1CC1 [Compound 264]	≥ 90%	≥ 90%	≥ 90%	≥ 90%	≥ 90%	≥ 90%	≥ 90%	≥ 90%	≥ 90%	≥ 90%	≥ 90%	≥ 90%	≥ 90%	≥ 90%	≥ 90%	≥ 90%	≥ 90%	≥ 90%	≥ 90%	≥ 90%	inhibition at 1 ppm [9]: ≥ 90%; inhibition at 5 ppm [9]: ≥ 90%; Rate of chlorophyll content increase (%) [10]: 12%; Rate of growth rate increase (%) [10]: 9%; Rate of leaf area increase (%) [10]: 11%; safety for plant growth (discoloration, necrosis, wilt, malformation) (cucumber seedlings): safe for plant growth; pest or weed control at 5 ppm [11]: ≥ 90%; pest or weed control at 10 ppm [11]: ≥ 90%; inhibition at 1 ppm [12]: ≥ 90%; inhibition at 5 ppm [12]: ≥ 90%; inhibition at 1 ppm [13]: ≥ 90%; inhibition at 5 ppm [13]: ≥ 90%; pest or weed control at 5 ppm [14]: ≥ 90%; pest or weed control at 10 ppm [14]: ≥ 90%
CCOc1cc2c(cc1F)c(=O)c(C(=O)OCCO)cn2C1CC1 [Compound 265]	≥ 90%	≥ 90%	≥ 90%	≥ 90%	≥ 90%	≥ 90%	≥ 90%	≥ 90%	≥ 90%	≥ 90%	≥ 90%	≥ 90%	≥ 90%	≥ 90%	≥ 90%	≥ 90%	≥ 90%	≥ 90%	≥ 90%	≥ 90%	inhibition at 1 ppm [9]: ≥ 90%; inhibition at 5 ppm [9]: ≥ 90%; Rate of chlorophyll content increase (%) [10]: 13%; Rate of growth rate increase (%) [10]: 12%; Rate of leaf area increase (%) [10]: 15%; safety for plant growth (discoloration, necrosis, wilt, malformation) (cucumber seedlings): safe for plant growth; pest or weed control at 5 ppm [11]: ≥ 90%; pest or weed control at 10 ppm [11]: ≥ 90%; inhibition at 1 ppm [12]: ≥ 90%; inhibition at 5 ppm [12]: ≥ 90%; inhibition at 1 ppm [13]: ≥ 90%; inhibition at 5 ppm [13]: ≥ 90%; pest or weed control at 5 ppm [14]: ≥ 90%; pest or weed control at 10 ppm [14]: ≥ 90%
